Laboratory results published in PubChem BioAssay AID463136 (University of Pittsburgh Molecular Library Screening Center, 2010).
Records with an inconclusive call do not appear. The source made the active and inactive calls. The rule behind the calls is not given here.

Legend:
[1] = blockers of dynein-driven microtubule transport – imaging, high-content imaging, dose response (AID 463136); conditions: HCS imaging, dynein-mediated cargo transport inhibition; inhibition at max concentration; at 50 µM; stronger effect = higher value;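 note: mouse mammary adenocarcinoma 3617.4 cells expressing GFP-tagged rat glucocorticoid receptor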; for inhibition: reference of the scale not given here
[2] = system: HCS imaging, dynein-mediated cargo transport inhibition; assay: as above

Row | Structure (SMILES) | inhibition [1] | IC50 [2]
1 | O=[N+]([O-])/C=C/c1cn(Cc2ccc(F)cc2)c2ccccc12 | 14% | > 50 µM (inactive)
2 | COC(=O)c1cc(NC(=O)c2cccc(Cl)c2)c(=O)oc1/C=C/Nc1cc(C)cc(C)c1 | 76.3% | 2.54 µM
3 | O=C(CCl)N(Cc1ccccc1)c1ccccc1 | 69.4% | 10 µM
4 | CCOC(=O)CC1C(=O)NCCN1c1nc2ccc(C)cn2c(=O)c1/C=C1\SC(=S)N(C(C)CC)C1=O (stereo not drawn) | 80.8% | 27.3 µM
5 | COc1ccc(C(=O)Cn2c(C)nc([N+](=O)[O-])c2Br)cc1 | 86.4% | 3.56 µM
6 | COc1ccc(NC(=O)/C(Cl)=C(/Cl)S(=O)Cc2ccccc2)cn1 (stereo not drawn) | 64.4% | 19.5 µM
7 | CC(=O)/C=C/n1c(=S)oc2ccccc21 | 69.5% | 23.4 µM
8 | Cc1ccc(NC(=O)CCl)cc1S(=O)(=O)N1CCCCCC1 | 88.6% | 10.6 µM
9 | CCCSc1cc(NCCOC(=O)CCC)c([N+](=O)[O-])c2nonc12 | 59.1% | 28.4 µM
10 | COCCCNC(=O)c1ccc2c3c(onc13)-c1ccccc1C2=O | 98.1% | 16.7 µM
11 | O=C(CN(c1cccc(C(F)(F)F)c1)S(=O)(=O)c1ccc(Cl)c([N+](=O)[O-])c1)NCc1ccccc1 | 15.7% | > 50 µM (inactive)
12 | N#CC(C#N)=C1C=CC=CN1/C(=C\c1ccco1)C(=O)c1ccc(Br)cc1 | 33.6% | > 50 µM (inactive)
13 | COc1cc(NC(=O)Cn2ncc(Cl)c(Cl)c2=O)c(C)cc1[N+](=O)[O-] | 64.6% | 7.75 µM
14 | CCOc1cc(/C=C\[N+](=O)[O-])ccc1OCC(=O)N1CCOCC1 | 76.4% | 37.4 µM
15 | CCOC(=O)CC1C(=O)NCCN1c1nc2ccc(C)cn2c(=O)c1/C=C1\SC(=S)N(CC(C)C)C1=O (stereo not drawn) | 71.8% | 44.9 µM
16 | CC(=O)n1cc(N(C(=O)CCl)c2ccc(C)cc2)c2ccccc21 | 68.7% | 16.8 µM
17 | O=C1c2ccccc2-c2onc3ccc(NCc4ccco4)c1c23 | 87.2% | 41.4 µM
18 | O=c1c(Cl)c(Cl)cnn1-c1ccccc1 | 81.7% | 9.57 µM
19 | O=c1[nH]sc2ccccc12 | 91% | 10.9 µM
20 | COc1cccc(N2C(=O)NC(=O)/C(=C/c3ccc([N+](=O)[O-])s3)C2=O)c1 | 87.8% | 10.7 µM
21 | CSc1nnc(C)c(/C=C/Nc2ccc(C)cc2)n1 | 109% | 31 µM

Row | Structure (SMILES) | inhibition [1] | IC50 [2]
22 | O=c1oc2c3c4c(cc2c(C(F)(F)F)c1CCN1CCOCC1)CCCN4CCC3 | 99.3% | 36.4 µM
23 | O=C(/C(=C/c1ccc(Cl)cc1)c1nc2ccccc2[nH]1)c1cccs1 | 81.7% | 24.9 µM
24 | C=C1C(=O)C=C2CN(C(=O)c3ccccc3)[C@@](Cc3ccc(F)cc3)(C(=O)OC)[C@@H]12 | 80.3% | 4 µM
25 | COc1ccc(CN=Cc2[nH]c3ccc(Br)c(Cl)c3c2O)cc1 | 93.4% | 28.5 µM
26 | CCOc1cc(C=C(C(=O)OC)C(=O)OC)ccc1OCc1ccc([N+](=O)[O-])cc1 | 37.2% | > 50 µM (inactive)
27 | CCCn1c(CC)nc([N+](=O)[O-])c1S(=O)(=O)c1ccccc1 | 85.2% | 7.21 µM
28 | O=C(CCl)N1N=C(c2cccs2)CC1c1ccco1 (stereo not drawn) | 47.6% | > 50 µM (inactive)
29 | CC(C)(C)C(=O)/C(=C/c1ccncc1)n1cncn1 | 82.3% | 8.77 µM
30 | CCOC(=O)C1=C(Cc2ccc(OC)cc2)C(=O)c2ccccc2C1=O | 21.6% | > 50 µM (inactive)
31 | O=C(/C=C/c1cccc([N+](=O)[O-])c1)n1cnc2ccccc21 | 85.7% | 17.3 µM
32 | CC(=O)Nc1sc(/C(C#N)=C/c2ccc(Cl)c(Cl)c2)nc1-c1ccc(C)cc1 | 102% | 0.491 µM
33 | N#CC(C#N)=C1C=CC=CN1/C(=C\c1ccco1)C(=O)c1ccccc1 | 19.2% | > 50 µM (inactive)
34 | CCN(CC)c1ccc2cc(-c3nc(-c4ccc(OC)cc4)cs3)c(=O)oc2c1 | 98.4% | 25.7 µM
35 | Cc1cc(-n2c(C)cc(C(=O)CCl)c2C)no1 | 67.7% | 9.45 µM
36 | COc1ccc(-n2nc(C#N)c(Cl)cc2=O)cc1 | 65.4% | 8.09 µM
37 | Cc1ccccc1-n1nnnc1Sc1nnnn1-c1ccccc1 | 87.8% | 17.6 µM
38 | C=CCn1c(C)cc(C(=O)Cn2ncc(Cl)c(Cl)c2=O)c1C | 86.5% | 10.3 µM
39 | CCOC(=O)C(=Cc1cc(=O)c(OC)co1)C(=O)OCC | 87.9% | 6.45 µM
40 | COC(=O)c1cc(=O)n(Cc2ccc(F)cc2)c(=Nc2ccccc2)s1 | 15.5% | > 50 µM (inactive)
41 | O=C(O)c1ccc(NC2=C(Cl)C(=O)c3ccccc3C2=O)cc1 | 71.1% | 15.2 µM
42 | Cc1cc(-c2n[nH]c(=S)n2/N=C/C(Br)=C/c2ccccc2)n[nH]1 | 82.9% | 16.5 µM

Row | Structure (SMILES) | inhibition [1] | IC50 [2]
43 | COc1ccc(/C=C\c2nc(=O)c3ccccc3o2)cc1 | 86.9% | 6.91 µM
44 | CN(C)c1ccc(/C=C/C(=O)c2cccc(Br)c2)cc1 | 18.7% | > 50 µM (inactive)
45 | COc1ccc(CCn2c(C)cc(C(=O)CCl)c2C)cc1OC | 82.1% | 9.84 µM
46 | C[C@@H]1C[C@@H]2O[C@H]2/C=C\C=C\C(=O)Cc2c(Cl)c(O)cc(O)c2C(=O)O1 | 49.4% | 0.281 µM
47 | Cc1ccc(-n2nnnc2CCl)cc1 | 80% | 12.2 µM
48 | CC(C)N1C/C(=C/c2cccnc2)C(=O)/C(=C/c2cccnc2)C1 | 83% | 8.41 µM
49 | O=Cc1s/c(=N\S(=O)(=O)c2ccccc2)n(CCCCl)c1Cl | 68.2% | 33.2 µM
50 | CCOc1ccc(-n2c(C)cc(C(=O)CCl)c2C)cc1 | 82.2% | 24.9 µM
51 | O=C(Cn1ncc(Cl)c(Cl)c1=O)N1CCN(S(=O)(=O)c2ccc3ccccc3c2)CC1 | 65.1% | 24.1 µM
52 | COC(=O)[C@@]1(Cc2ccccc2)[C@@H]2C(=CC(=O)[C@H]2CC(=O)C(=O)N(C)C)CN1C(=O)c1ccccc1 | 86.2% | 4.67 µM
53 | Cn1c(=O)c([N+](=O)[O-])c(Oc2ccccc2)c2ccccc21 | 15.3% | > 50 µM (inactive)
54 | C#CC(=O)N(c1cccc(OC)c1)C(C(=O)NC1CCCC1)c1cccs1 (stereo not drawn) | 16.5% | > 50 µM (inactive)
55 | COC(=O)c1ccc(-n2c(C)cc(C(=O)CCl)c2C)cc1 | 66.8% | 21.9 µM
56 | COc1ccc(-c2csc3nc(-c4ccccc4F)oc(=O)c23)cc1OC | 20.3% | > 50 µM (inactive)
57 | CCOC(=O)c1c2ccc(OCC(=O)N/N=C/c3ccc(Cl)cc3)cc2n2ccccc12 | 27.4% | > 50 µM (inactive)
58 | Cc1cc(C)c(S(=O)(=O)ON2C(=O)c3ccccc3C2=O)cc1C | 10.5% | > 50 µM (inactive)
59 | CCOC(=O)c1c(-n2c(C)cc(C=C3C(=O)NC(=S)NC3=O)c2C)sc2c1CCCC2 | 78.1% | 5.75 µM
60 | Cc1ccccc1NC(=O)C(Cl)=C(Cl)Cl | 77.1% | 13.4 µM
61 | CC(C)(C)NC(=S)N/N=C\c1ccc(-c2ccc([N+](=O)[O-])cc2)o1 | 3.06% | > 50 µM (inactive)
62 | CNCc1ccccc1Sc1cc(O)ccc1O | 74.1% | 38.5 µM
63 | N#CC(C#N)=C1C=C2C=C(N3CCCCCC3)CCC2CC1 (stereo not drawn) | 99.2% | 36.2 µM

Row | Structure (SMILES) | inhibition [1] | IC50 [2]
64 | COC1=C(C)C(O)=C(C(=O)/C=C/c2ccccc2)C(=O)C1(C)C | 88.2% | 12.2 µM
65 | Nc1cccc2c1C(=O)N(C(=O)/C=C/c1cccc(F)c1)C2=O | 14.3% | > 50 µM (inactive)
66 | CCCCNC1C(CC)C(CCC)C(C#N)(C#N)C1(C#N)C#N (stereo not drawn) | 75.2% | 21.7 µM
67 | O=C(CCl)N(c1ccccc1)c1ccccc1 | 61.3% | 14.2 µM
68 | COc1ccc(N(C(=O)CCl)C(C(=O)NCCc2ccccc2)c2cccs2)cc1Cl (stereo not drawn) | 93.6% | 14.8 µM
69 | CCOC(=O)C(=Cc1ccc(F)cc1)C(=O)OCC | 73.4% | 27.8 µM
70 | O=C(OCCN1C(=O)c2cccc3c(N4CCOCC4)ccc(c23)C1=O)c1ccc(Cl)cc1Cl | 2.73% | > 50 µM (inactive)
71 | Clc1ccc(-c2nnc(Sc3nc4ccccc4o3)c3ccccc23)cc1 | 83% | 39.3 µM
72 | N#C/C(=C/c1ccc(N2CCCCC2)o1)C(=O)NCCc1c[nH]c2ccccc12 | 98.8% | 31.8 µM
73 | CC(=O)c1sc2nc(-c3cccs3)cc(C(F)(F)F)c2c1N | 86% | 21.6 µM
74 | Cn1cnc([N+](=O)[O-])c1S(=O)(=O)c1ccc(Cl)cc1 | 78.2% | 3.72 µM
75 | Cc1ccc(/C=C2\CCC3=C2OC(N)=C(C#N)C3c2ccc(C)cc2)cc1 (stereo not drawn) | 111% | 3.23 µM
76 | CCCCNc1c2c3c(cccc3n(C)c1=O)C(=O)c1ccccc1-2 | 12% | > 50 µM (inactive)
77 | CC(=O)Cn1ncc(Br)c(Br)c1=O | 78.5% | 5.4 µM
78 | COc1ccccc1NS(=O)(=O)c1cc([N+](=O)[O-])ccc1N/N=C/c1c(C)[nH]c2ccccc12 | 16.5% | > 50 µM (inactive)
79 | O=[N+]([O-])c1c(NCCCO)cc(Sc2ccc(Cl)cc2)c2nonc12 | 30.9% | > 50 µM (inactive)
80 | CCCn1nc([N+](=O)[O-])c(C(C#N)c2nc3ccccc3s2)c(Cl)c1=O (stereo not drawn) | 97% | 14.6 µM
81 | CC(=O)OCCNc1cc(SCc2ccco2)c2nonc2c1[N+](=O)[O-] | 59.9% | 42.1 µM
82 | Cc1nc([N+](=O)[O-])c(Br)n1Cc1ccccc1 | 84.8% | 6.35 µM
83 | O=C(/C=C/c1ccncc1)c1ccc2c(c1)OCCO2 | 72.4% | 17.1 µM
84 | O=C(Cn1ncc(Cl)c(Cl)c1=O)N1CCN(Cc2ccccc2)CC1 | 62.9% | 5.63 µM
